Measured values published in ChEMBL document CHEMBL3822396 (J Med Chem, 2016).
Active and inactive are the calls of the source. The rule behind the calls is not given here.

What was measured:
[1] = Clearance in C57BL/6 mouse at 2 mg/kg, po or 1 mg/kg, iv by LC-MS/MS analysis; type: ADME, organism-based; settings: in vivo
[2] = Volume of distribution at steady state in C57BL/6 mouse at 2 mg/kg, po or 1 mg/kg, iv by LC-MS/MS analysis; type: ADME, organism-based; settings: in vivo, read-out: Vdss
[3] = Half life in C57BL/6 mouse at 2 mg/kg, po or 1 mg/kg, iv by LC-MS/MS analysis; type: ADME, organism-based; settings: in vivo
Mus musculus [4] = assay: Antiinflammatory activity in C57Bl/6 mouse assessed as inhibition of FK156-induced serum KC level at 0.1 to 100 mg/kg, po for 15 mins prior to FK156-challenge measured after 2.5 hrs by FACS analysis; type: functional, organism-based
Mus musculus [5] = assay: Antiinflammatory activity in C57Bl/6 mouse assessed as inhibition of LPS-induced serum KC level at 10 mg/kg, po for 15 mins prior to LPS-challenge measured after 2.5 hrs; type: functional, organism-based
Intestinal mucosa [6] = assay: Inhibition of TNFalpha production in intestinal mucosa derived from Crohn's disease patient measured after 24 hrs by sandwich ELISA; type: functional, tissue-based; settings: Homo sapiens
Intestinal mucosa [7] = assay: Inhibition of TNFalpha production in intestinal mucosa derived from ulcerative colitis patient measured after 24 hrs by sandwich ELISA; type: functional, tissue-based; settings: Homo sapiens
Mus musculus [8] = assay: Antiinflammatory activity in Balb/c mouse model of L18-MDP-induced inflammatory peritonitis assessed as inhibition of serum KC level into peritoneal cavity administered orally for 15 mins prior to L18-MDP-challenge measured after 4 hrs; type: functional, organism-based
[9] = Cmax in Sprague-Dawley rat at 2 mg/kg, po administered through cassette dosing as by LC-MS/MS analysis; type: ADME, organism-based; parameters: dose 2 mg/kg, route oral; settings: in vivo
[10] = target: Protein-tyrosine kinase 6 (Homo sapiens) (UniProt Q13882); assay: Inhibition of human full length N-terminal GST-tagged BRK expressed in baculovirus expression system at 1 uM
[11] = target: T1, Aurora kinase A (Homo sapiens) (UniProt O14965); assay: Inhibition of human full length N-terminal GST-tagged aurora-a expressed in baculovirus expression system at 1 uM
T1 sequence (whole entry): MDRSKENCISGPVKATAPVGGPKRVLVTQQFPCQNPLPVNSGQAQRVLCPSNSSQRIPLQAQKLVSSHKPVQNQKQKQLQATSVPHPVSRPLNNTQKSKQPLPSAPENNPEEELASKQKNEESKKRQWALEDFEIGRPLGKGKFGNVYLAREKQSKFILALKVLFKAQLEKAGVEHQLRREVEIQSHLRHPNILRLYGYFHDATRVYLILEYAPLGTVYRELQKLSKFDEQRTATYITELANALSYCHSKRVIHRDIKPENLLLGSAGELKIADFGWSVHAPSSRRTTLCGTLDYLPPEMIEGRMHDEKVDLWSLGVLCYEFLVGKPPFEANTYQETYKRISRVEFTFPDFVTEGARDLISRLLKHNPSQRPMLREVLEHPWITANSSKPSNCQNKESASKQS

[12] = target: Receptor-interacting serine/threonine-protein kinase 2 (Rattus norvegicus, UniProt G3V783); assay: Inhibition of rat RIPK2 preincubated for 10 mins followed by addition of fluorescent-labeled 2-Methyl-5-(2-propen-l-yloxy)aniline measured after 10 mins by fluorescence polarization assay
[13] = target: Nucleotide-binding oligomerization domain-containing protein 2 (Homo sapiens) (UniProt Q9HC29); assay: Activation of NOD2 in human monocytes assessed as inhibition of MDP-stimulated TNF-alpha production preincubated for 30 mins prior to MDP stimulation measured after 6 hrs by immunoassay; type: cell-based
[14] = target: Toll-like receptor 2 (Homo sapiens) (UniProt O60603); assay: Activation of TLR2 receptor in human monocytes assessed as inhibition of Pam2Csk4-stimulated TNF-alpha production preincubated for 30 mins prior to Pam2Csk4 stimulation at 1 uM measured after 6 hrs by immunoassay; type: cell-based
[15] = target: T2, Toll-like receptor 7 (Homo sapiens) (UniProt Q9NYK1); assay: Activation of TLR7 receptor in human monocytes assessed as inhibition of gardiquimod-stimulated IL8 production preincubated for 30 mins prior to gardiquimod stimulation at 1 uM measured after 6 hrs by immunoassay; type: cell-based
T2 sequence (whole entry): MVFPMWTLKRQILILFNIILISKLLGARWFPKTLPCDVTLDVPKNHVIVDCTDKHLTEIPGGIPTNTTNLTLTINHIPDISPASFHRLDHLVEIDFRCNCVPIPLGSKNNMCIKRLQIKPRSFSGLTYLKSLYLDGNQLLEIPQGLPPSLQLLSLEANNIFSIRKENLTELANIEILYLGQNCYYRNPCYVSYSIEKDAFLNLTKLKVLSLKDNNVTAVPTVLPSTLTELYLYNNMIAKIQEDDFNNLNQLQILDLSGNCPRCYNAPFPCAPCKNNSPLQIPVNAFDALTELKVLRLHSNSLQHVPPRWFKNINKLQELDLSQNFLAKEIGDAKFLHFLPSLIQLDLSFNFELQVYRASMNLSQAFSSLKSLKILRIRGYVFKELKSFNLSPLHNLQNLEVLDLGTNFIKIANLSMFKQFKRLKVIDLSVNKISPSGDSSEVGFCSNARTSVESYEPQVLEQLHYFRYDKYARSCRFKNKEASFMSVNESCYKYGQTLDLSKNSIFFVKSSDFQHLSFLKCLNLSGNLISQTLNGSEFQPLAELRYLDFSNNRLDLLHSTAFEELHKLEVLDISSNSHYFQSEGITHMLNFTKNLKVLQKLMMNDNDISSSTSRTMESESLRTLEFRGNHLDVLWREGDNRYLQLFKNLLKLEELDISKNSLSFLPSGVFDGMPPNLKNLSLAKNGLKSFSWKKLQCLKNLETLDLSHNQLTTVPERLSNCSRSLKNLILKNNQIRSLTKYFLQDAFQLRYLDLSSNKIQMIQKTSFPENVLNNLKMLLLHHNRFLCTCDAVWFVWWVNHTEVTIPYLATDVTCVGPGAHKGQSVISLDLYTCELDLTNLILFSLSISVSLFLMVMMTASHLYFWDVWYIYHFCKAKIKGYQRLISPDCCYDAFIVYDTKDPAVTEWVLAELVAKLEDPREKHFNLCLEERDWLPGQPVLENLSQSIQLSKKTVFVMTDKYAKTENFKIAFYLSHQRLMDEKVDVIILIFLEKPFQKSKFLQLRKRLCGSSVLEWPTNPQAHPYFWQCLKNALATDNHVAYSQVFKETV

Homo sapiens = organism: Homo sapiens; assay: Activation of TFNR in human monocytes assessed as inhibition of TNF-alpha-stimulated IL8 production preincubated for 30 mins prior to TNF-alpha stimulation at 1 uM measured after 6 hrs by immunoassay; type: cell-based
[16] = Clearance in Sprague-Dawley rat at 2 mg/kg, po or 1 mg/kg, iv by LC-MS/MS analysis; type: ADME, organism-based; settings: in vivo
[17] = Volume of distribution at steady state in Sprague-Dawley rat at 2 mg/kg, po or 1 mg/kg, iv by LC-MS/MS analysis; type: ADME, organism-based; settings: in vivo, read-out: Vdss
[18] = Oral bioavailability in Sprague-Dawley rat at 2 mg/kg by LC-MS/MS analysis; type: ADME, organism-based; settings: in vivo
[19] = target: Mitogen-activated protein kinase 14 (Homo sapiens, UniProt Q16539)
Mitogen-activated protein kinase 14, sequence (Q16539 whole entry): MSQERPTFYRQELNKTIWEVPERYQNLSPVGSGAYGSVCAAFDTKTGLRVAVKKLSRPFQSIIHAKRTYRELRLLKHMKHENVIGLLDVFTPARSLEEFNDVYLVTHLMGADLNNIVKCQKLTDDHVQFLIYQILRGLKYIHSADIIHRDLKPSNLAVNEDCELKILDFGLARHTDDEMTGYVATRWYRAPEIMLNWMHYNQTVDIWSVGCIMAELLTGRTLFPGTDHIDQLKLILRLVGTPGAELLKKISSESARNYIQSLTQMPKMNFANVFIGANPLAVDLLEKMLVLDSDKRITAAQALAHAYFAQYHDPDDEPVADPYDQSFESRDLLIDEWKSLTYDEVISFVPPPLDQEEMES

Protein-tyrosine kinase 6 (Homo sapiens), sequence (Q13882 whole entry, looked up): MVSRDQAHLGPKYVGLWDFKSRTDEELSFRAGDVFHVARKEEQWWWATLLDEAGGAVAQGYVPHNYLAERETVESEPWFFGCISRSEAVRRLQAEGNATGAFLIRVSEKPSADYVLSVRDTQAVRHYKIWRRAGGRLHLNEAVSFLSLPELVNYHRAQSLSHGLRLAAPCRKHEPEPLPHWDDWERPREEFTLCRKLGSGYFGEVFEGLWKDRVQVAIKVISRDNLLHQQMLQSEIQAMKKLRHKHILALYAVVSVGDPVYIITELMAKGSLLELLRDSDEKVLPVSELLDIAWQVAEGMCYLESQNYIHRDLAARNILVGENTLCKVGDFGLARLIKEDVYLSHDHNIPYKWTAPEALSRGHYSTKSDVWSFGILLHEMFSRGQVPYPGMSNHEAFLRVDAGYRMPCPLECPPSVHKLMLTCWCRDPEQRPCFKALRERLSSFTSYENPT
Receptor-interacting serine/threonine-protein kinase 2, sequence (G3V783 whole entry, the tested form may be a part): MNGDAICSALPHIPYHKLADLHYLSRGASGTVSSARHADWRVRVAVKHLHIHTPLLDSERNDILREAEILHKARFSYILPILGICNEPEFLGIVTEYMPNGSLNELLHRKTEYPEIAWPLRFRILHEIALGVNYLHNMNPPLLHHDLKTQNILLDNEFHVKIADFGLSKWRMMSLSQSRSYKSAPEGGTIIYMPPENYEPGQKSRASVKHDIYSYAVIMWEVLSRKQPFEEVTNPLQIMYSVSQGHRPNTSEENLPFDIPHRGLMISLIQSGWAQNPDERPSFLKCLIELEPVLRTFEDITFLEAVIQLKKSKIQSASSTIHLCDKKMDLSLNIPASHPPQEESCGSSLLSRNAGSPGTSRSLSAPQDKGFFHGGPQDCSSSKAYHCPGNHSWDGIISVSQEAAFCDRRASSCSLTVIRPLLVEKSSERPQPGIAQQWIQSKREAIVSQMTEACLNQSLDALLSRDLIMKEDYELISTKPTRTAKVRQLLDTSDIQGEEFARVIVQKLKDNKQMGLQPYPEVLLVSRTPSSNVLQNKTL
Nucleotide-binding oligomerization domain-containing protein 2 (Homo sapiens), sequence (Q9HC29 whole entry, the tested form may be a part): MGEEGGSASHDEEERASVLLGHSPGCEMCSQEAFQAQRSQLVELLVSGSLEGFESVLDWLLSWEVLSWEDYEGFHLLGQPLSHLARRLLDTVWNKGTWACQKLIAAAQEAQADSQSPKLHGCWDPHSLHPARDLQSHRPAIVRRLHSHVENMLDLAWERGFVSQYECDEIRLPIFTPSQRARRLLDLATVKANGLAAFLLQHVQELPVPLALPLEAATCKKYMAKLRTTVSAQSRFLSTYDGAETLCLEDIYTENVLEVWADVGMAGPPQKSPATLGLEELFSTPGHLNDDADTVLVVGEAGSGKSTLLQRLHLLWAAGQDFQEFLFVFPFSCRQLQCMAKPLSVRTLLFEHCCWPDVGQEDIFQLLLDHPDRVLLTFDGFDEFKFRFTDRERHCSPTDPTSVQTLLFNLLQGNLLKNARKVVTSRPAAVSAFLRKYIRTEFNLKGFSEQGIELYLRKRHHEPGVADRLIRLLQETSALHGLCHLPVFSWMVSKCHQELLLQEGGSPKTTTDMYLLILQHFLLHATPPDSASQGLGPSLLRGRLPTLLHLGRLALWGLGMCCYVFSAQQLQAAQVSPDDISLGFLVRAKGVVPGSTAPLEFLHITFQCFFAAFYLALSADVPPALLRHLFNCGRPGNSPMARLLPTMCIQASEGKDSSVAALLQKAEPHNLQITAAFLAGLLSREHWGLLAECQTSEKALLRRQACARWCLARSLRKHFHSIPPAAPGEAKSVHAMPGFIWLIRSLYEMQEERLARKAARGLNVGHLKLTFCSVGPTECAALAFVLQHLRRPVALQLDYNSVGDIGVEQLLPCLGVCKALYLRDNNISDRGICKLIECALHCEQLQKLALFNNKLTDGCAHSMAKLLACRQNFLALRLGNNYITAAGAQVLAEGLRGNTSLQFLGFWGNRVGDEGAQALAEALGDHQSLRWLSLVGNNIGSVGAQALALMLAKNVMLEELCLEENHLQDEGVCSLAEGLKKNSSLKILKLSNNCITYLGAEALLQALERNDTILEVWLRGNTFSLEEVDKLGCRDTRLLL
Toll-like receptor 2 (Homo sapiens), sequence (O60603 whole entry): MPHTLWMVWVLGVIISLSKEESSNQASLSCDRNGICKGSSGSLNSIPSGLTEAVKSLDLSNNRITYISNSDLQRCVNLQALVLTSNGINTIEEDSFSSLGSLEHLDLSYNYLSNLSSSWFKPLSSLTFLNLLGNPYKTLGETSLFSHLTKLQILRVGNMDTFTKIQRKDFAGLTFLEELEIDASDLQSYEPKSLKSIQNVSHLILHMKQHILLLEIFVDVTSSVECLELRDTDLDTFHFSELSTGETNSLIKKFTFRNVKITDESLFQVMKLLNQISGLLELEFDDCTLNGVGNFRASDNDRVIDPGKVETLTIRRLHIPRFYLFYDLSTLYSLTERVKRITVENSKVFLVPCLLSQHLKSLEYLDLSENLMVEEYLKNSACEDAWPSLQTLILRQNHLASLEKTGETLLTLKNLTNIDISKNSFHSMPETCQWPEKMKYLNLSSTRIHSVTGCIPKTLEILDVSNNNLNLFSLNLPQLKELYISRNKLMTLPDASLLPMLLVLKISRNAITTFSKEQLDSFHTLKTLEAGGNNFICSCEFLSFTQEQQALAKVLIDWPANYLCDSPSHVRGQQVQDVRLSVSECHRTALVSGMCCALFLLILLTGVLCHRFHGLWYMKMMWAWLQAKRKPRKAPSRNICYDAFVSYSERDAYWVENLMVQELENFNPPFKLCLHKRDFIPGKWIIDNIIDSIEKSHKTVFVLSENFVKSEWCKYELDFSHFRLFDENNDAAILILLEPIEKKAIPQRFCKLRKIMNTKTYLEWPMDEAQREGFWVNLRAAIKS

## CC(C)(C)S(=O)(=O)c1ccc2nccc(Nc3n[nH]c4ccc(F)cc34)c2c1
[1]
  clearance: 13 mL/min/kg
[2]
  Vd: 1.2 L/kg
[3]
  half-life: 2.1 h
Mus musculus [4]
  inhibition: Active
Mus musculus [5]
  inhibition: inactive
Intestinal mucosa [6]
  inhibition: Dose-dependent effect
Intestinal mucosa [7]
  inhibition: Dose-dependent effect
Mus musculus [8]
  Activity: Dose-dependent effect
[9]
  Cmax: 260 ng/mL
[10]
  inhibition: 30%
[11]
  inhibition: 30%
[12]
  IC50: 2 nM
[13]
  inhibition: Active
[14]
  inhibition: Active
[15]
  inhibition: Active
Homo sapiens
  inhibition: Active
[16]
  clearance: 15 mL/min/kg
[17]
  Vd: 2 L/kg
[18]
  bioavailability: 39%
[19]
  IC50: 5120 nM
